In patent US9617253B2, “Molecules having pesticidal utility, and intermediates, compositions, and processes, related thereto” (Dow AgroSciences LLC, priority 2015, dated 2017):

How the values were obtained:
[1] = system: Beet Armyworm (Spodoptera exigua, LAPHEG); test: Bioassay on Beet Armyworm (BAW), 128-well diet tray assay; format: in vivo; conditions: 168 h, second instar BAW larvae, 50 μg/cm^2 on artificial diet, 25° C., five to seven days, average of eight wells, read-out: BAW % Control (or Mortality) rating
Procedure: (§1) Certain molecules disclosed in this document were tested against BAW and CL using procedures described in the following examples. In the reporting of the results, the “BAW & CL Rating Table” was used (See Table Section).
Bioassays on BAW were conducted using a 128-well diet tray assay. One to five second instar BAW larvae were placed in each well (3 mL) of the diet tray that had been previously filled with 1 mL of artificial diet to which 50 μg/cm^2 of the test molecule (dissolved in 50 μL of 90:10 acetone-water mixture) had been applied (to each of eight wells) and then allowed to dry. Trays were covered with a clear self-adhesive cover, vented to allow gas exchange, and held at 25° C., 14:10 light-dark for five to seven days. Percent mortality was recorded for the larvae in each well; activity in the eight wells was then averaged. The results are indicated in the table entitled “Table ABC: Biological Results” (See Table Section).

[2] = system: Yellow Fever Mosquito (Aedes aegypti, AEDSAE); format: in vivo; conditions: about 1 day-old larvae, from 4000 ppm DMSO master plate, room temperature, scored after 3 days
Procedure: Certain molecules disclosed in this document were tested against YFM using procedures described in the following paragraph. In the reporting of the results, the “YFM Rating Table” was used (See Table Section).
Master plates containing 400 μg of a molecule dissolved in 100 μL of dimethyl sulfoxide (DMSO) (equivalent to a 4000 ppm solution) are used. A master plate of assembled molecules contains 15 μL per well. To this plate, 135 μL of a 90:10 water/acetone mixture is added to each well. A robot (Biomek® NXP Laboratory Automation Workstation) is programmed to dispense 15 μL aspirations from the master plate into an empty 96-well shallow plate (“daughter” plate). There are 6 reps (“daughter” plates) created per master. The created “daughter” plates are then immediately infested with YFM larvae.
The day before plates are to be treated, mosquito eggs are placed in Millipore water containing liver powder to begin hatching (4 g into 400 mL). After the “daughter” plates are created using the robot, they are infested with 220 μL of the liver powder/larval mosquito mixture (about 1 day-old larvae). After plates are infested with mosquito larvae, a non-evaporative lid is used to cover the plate to reduce drying. Plates are held at room temperature for 3 days prior to grading. After 3 days, each well is observed and scored based on mortality. The results are indicated in the table entitled “Table ABC: Biological Results” (See Table Section).

[3] = system: Cabbage Looper (Trichoplusia ni, TRIPNI); test: Bioassay on Cabbage Looper (CL), 128-well diet tray assay; format: in vivo; conditions: 168 h, second instar CL larvae, 50 μg/cm^2 on artificial diet, 25° C., five to seven days, average of eight wells, read-out: CL % Control (or Mortality) rating
Procedure: as §1
Bioassays on CL were conducted using a 128-well diet tray assay. One to five second instar CL larvae were placed in each well (3 mL) of the diet tray that had been previously filled with 1 mL of artificial diet to which 50 μg/cm^2 of the test molecule (dissolved in 50 μL of 90:10 acetone-water mixture) had been applied (to each of eight wells) and then allowed to dry. Trays were covered with a clear self-adhesive cover, vented to allow gas exchange, and held at 25° C., 14:10 light-dark for five to seven days. Percent mortality was recorded for the larvae in each well; activity in the eight wells was then averaged. The results are indicated in the table entitled “Table ABC: Biological Results” (See Table Section).

SMILES | mortality at 50 µg/cm2 [1] [%] | YFM % Control (or Mortality) rating [2] | mortality at 50 µg/cm2 [3] [%] | melting point [°C]
COCc1ccc(C)cc1N1C(=O)CS/C1=N\C(=O)Nc1ccc(COc2ncn(-c3ccc(OC(F)(F)F)cc3)n2)c(F)c1 [F9, (Z)-1-(3-Fluoro-4-(((1-(4-(trifluoromethoxy)phenyl)-1H-1,2,4-triazol-3-yl)oxy)methyl)phenyl)-3-(3-(2-(methoxymethyl)-5-methylphenyl)-4-oxothiazolidin-2-ylidene)urea] | 50 to 100 | A (80-100) | 50 to 100 | 
Cc1ccc(C(C)C)c(N2C(=O)CS/C2=N\C(=O)Nc2cc(F)c(OCc3ncn(-c4ccc(OC(F)(F)F)cc4)n3)c(F)c2)c1 [F41, (Z)-1-(3,5-Difluoro-4-((1-(4-(trifluoromethoxy)phenyl)-1H-1,2,4-triazol-3-yl)methoxy)phenyl)-3-(3-(2-isopropyl-5-methylphenyl)-4-oxothiazolidin-2-ylidene)urea] | 50 to 100 | A (80-100) | 50 to 100 | 
CCCc1ccc(C)cc1N1C(=O)CS/C1=N\C(=O)Nc1ccc(COc2ncn(-c3ccc(OC(F)(F)F)cc3)n2)cc1 [F5, (Z)-1-(3-(5-Methyl-2-propylphenyl)-4-oxothiazolidin-2-ylidene)-3-(4-(((1-(4-(trifluoromethoxy)phenyl)-1H-1,2,4-triazol-3-yl)oxy)methyl)phenyl)urea] | 50 to 100 | A (80-100) | 50 to 100 | 
COCc1ccc(C)cc1N1C(=O)CS/C1=N\C(=O)Nc1ccc(COc2ncn(-c3ccc(OC(F)(F)F)cc3)n2)cc1 [F8, (Z)-1-(3-(2-(Methoxymethyl)-5-methylphenyl)-4-oxothiazolidin-2-ylidene)-3-(4-(((1-(4-(trifluoromethoxy)phenyl)-1H-1,2,4-triazol-3-yl)oxy)methyl)phenyl)urea] | 50 to 100 | A (80-100) | 50 to 100 | 
CCCc1ccc(C)cc1N1C(=O)CS/C1=N\C(=O)Nc1ccc(OCc2ncn(-c3ccc(OC(F)(F)F)cc3)n2)cc1 [F17, (Z)-1-(3-(5-Methyl-2-propylphenyl)-4-oxothiazolidin-2-ylidene)-3-(4-((1-(4-(trifluoromethoxy)phenyl)-1H-1,2,4-triazol-3-yl)methoxy)phenyl)urea] | 50 to 100 | A (80-100) | 50 to 100 | 
COC(C)c1ccc(C)cc1N1C(=O)CS/C1=N\C(=O)Nc1c(F)cc(OCc2ncn(-c3ccc(OC(F)(F)F)cc3)n2)cc1F (centres unmarked) |  |  |  | 147 to 152
COCc1ccc(C)cc1N1C(=O)CS/C1=N\C(=O)Nc1ccc(OCc2ncn(-c3ccc(OC(F)(F)F)cc3)n2)cc1Cl |  |  |  | 148 to 150
